# Measured values as given in ChEMBL document CHEMBL3045536, “Prediction of antimalarial activity of some cyclic peroxy ketals using physico-chemical and topological indices” (2012).
# System: Plasmodium falciparum
# Assay: Antimalarial activity against Plasmodium falciparum
# Type: functional
row,Structure (SMILES),logIC50
1,COc1ccc(C2(OC)C=CC(C3CCCCC3)(C3CCCCC3)OC2)cc1 (centres undefined),2.255
2,COc1ccc(C2(OC)C=CC(C3CCCCCC3)(C3CCCCCC3)OC2)cc1 (centres undefined),2.322
3,COc1cc(C2(OC)C=CC(C3CCCCCC3)(C3CCCCCC3)OC2)cc(OC)c1OC (centres undefined),2.079
4,COC1(c2ccc(OC(F)(F)F)cc2)C=CC(C2CCCCCC2)(C2CCCCCC2)OC1 (centres undefined),1.785
5,COC1(c2ccc(Cl)cc2)C=CC(C2CCCCCC2)(C2CCCCCC2)OC1 (centres undefined),1.763
6,COC1(c2ccc(F)cc2)C=CC(C2CCCCCC2)(C2CCCCCC2)OC1 (centres undefined),1.929
7,COC1(c2ccc(SC)cc2)C=CC(C2CCCCCC2)(C2CCCCCC2)OC1 (centres undefined),1.892
8,COC1(c2ccc(S(C)(=O)=O)cc2)C=CC(C2CCCCCC2)(C2CCCCCC2)OC1 (centres undefined),1.491
9,CCc1ccc(C2(OC)C=CC(C3CCCCCC3)(C3CCCCCC3)OC2)cc1 (centres undefined),2.255
10,COC1(c2ccc(SC)cc2)C=CC(C2CCCCC2)(C2CCCCC2)OC1 (centres undefined),2.204
11,COC1(c2ccc(S(C)(=O)=O)cc2)C=CC(C2CCCCC2)(C2CCCCC2)OC1 (centres undefined),1.748
12,COC1(c2ccc([N+](=O)[O-])cc2)C=CC(C2CCCCC2)(C2CCCCC2)OC1 (centres undefined),1.663
13,COC1(c2ccc(Cl)cc2)C=CC(C2CCCCC2)(C2CCCCC2)OC1 (centres undefined),2
14,COC1(c2ccc(F)cc2)C=CC(C2CCCCC2)(C2CCCCC2)OC1 (centres undefined),2.301
15,COC1(c2ccc(C(F)(F)F)cc2)C=CC(C2CCCCC2)(C2CCCCC2)OC1 (centres undefined),2.146
16,COC1(c2ccccc2)C=CC(C)(C)OC1 (centres undefined),3.041
17,COC1(c2ccccc2)C=CC(C2CCCC2)(C2CCCC2)OC1 (centres undefined),2.279
18,COC1(c2ccccc2)C=CC(C2CCCCC2)(C2CCCCC2)OC1 (centres undefined),2.447
19,COC1(c2ccccc2)C=CC(C2CCCCCC2)(C2CCCCCC2)OC1 (centres undefined),2.342
